What follows are molecules tested on parasites (ring stage, in human red blood cell culture) (assay: Parasite LDH growth assay (antiparasite potency, Parasite Assay)). Conditions: Plasmodium falciparum, Erythrocyte, 72 h, 0.7% rings, 2% haematocrit, 72 hours at 37° C., LDH readout of parasite growth.
Format: cell-based, Plasmodium falciparum
How it was run: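 Ring-stage parasites at 0.7% parasitemia and 2% haematocrit, in RPMI-Hepes/bicarbonate with 5% heat-inactivated human serum and 0.5% albumax, were added to compound-containing medium. Cultures grew 72 h at 37 °C in gassed humidified boxes. Plates were then frozen overnight at −80 °C, thawed 4 h, and growth was measured by LDH assay.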

| SMILES | EC50 |
| --- | --- |
| CC[C@]1(C)CC(=O)N([C@@H]2C[C@@H](C)c3ccc(C(=O)N[C@@H]4c5ccccc5OC(C)(C)[C@H]4O)cc32)C(=N)N1 [Example 171, (1R,3R)-3-[(4R)-4-ethyl-2-imino-4-methyl-6-oxo-hexahydropyrimidin-1-yl]-N-[(3S,4R)-3-hydroxy-2,2-dimethyl-chroman-4-yl]-1-methyl-indane-5-carboxamide] | 0.7 nM |
| CC1(C)CC(=O)N([C@@H]2CCOc3ccc(C(=O)N[C@@H]4c5ccccc5OC(C)(C)[C@@]4(C)O)cc32)C(=N)N1 [Example 172, (4R)-N-[(3S,4R)-3-hydroxy-2,2,3-trimethyl-chroman-4-yl]-4-(2-imino-4,4-dimethyl-6-oxo-hexahydropyrimidin-1-yl)chromane-6-carboxamide] | 0.9 nM |
| CCC1(CC)CC(=O)N([C@@H]2CCOc3ccc(C(=O)N[C@@H]4c5ccccc5OC[C@H]4OC)cc32)C(=N)N1 [Example 173, (4R)-4-(4,4-diethyl-2-imino-6-oxo-hexahydropyrimidin-1-yl)-N-[(3S,4R)-3-methoxychroman-4-yl]chromane-6-carboxamide] | 2.8 nM |
| CC[C@]1(C)CC(=O)N([C@H]2c3cc(C(=O)N[C@@H]4c5ccccc5C[C@H]4O)ccc3OC[C@@H]2COC)C(=N)N1 [Example 174, (3S,4R)-4-[(4R)-4-ethyl-2-imino-4-methyl-6-oxo-hexahydropyrimidin-1-yl]-N-[(1R,2R)-2-hydroxyindan-1-yl]-3-(methoxymethyl)chromane-6-carboxamide] | 1.9 nM |
| COCC1(C)CC(N2C(=N)NC(C)(C)CC2=O)c2cc(C(=O)N[C@@H]3c4ccccc4C[C@H]3O)ccc2O1 (stereo partly drawn) [Example 175, N-[(1R,2R)-2-hydroxyindan-1-yl]-4-(2-imino-4,4-dimethyl-6-oxo-hexahydropyrimidin-1-yl)-2-(methoxymethyl)-2-methyl-chromane-6-carboxamide] | 31 nM |
| CC[C@@]1(C)CC(=O)N(C2c3cc(C(=O)N[C@H]4CC(C)(C)Oc5ccccc54)ccc3OCC2O)C(=N)N1 (stereo partly drawn) [Example 177, N-[(4S)-2,2-dimethylchroman-4-yl]-4-[(4S)-4-ethyl-2-imino-4-methyl-6-oxo-hexahydropyrimidin-1-yl]-3-hydroxy-chromane-6-carboxamide] | 66.9 nM |
| CC[C@]1(C)CC(=O)N(C2c3cc(C(=O)N[C@@H]4c5ccccc5C[C@@]4(C)O)ccc3OCC2OC)C(=N)N1 (stereo partly drawn) [Example 179, 4-[(4R)-4-ethyl-2-imino-4-methyl-6-oxo-hexahydropyrimidin-1-yl]-N-[(1R,2R)-2-hydroxy-2-methyl-indan-1-yl]-3-methoxy-chromane-6-carboxamide] | 65.4 nM |
| CC[C@]1(C)CC(=O)N(C2c3cc(C(=O)N[C@@H]4c5ccccc5C[C@H]4O)ccc3OCC2(C)OC)C(=N)N1 (stereo partly drawn) [Example 180, 4-[(4R)-4-ethyl-2-imino-4-methyl-6-oxo-hexahydropyrimidin-1-yl]-N-[(1R,2R)-2-hydroxyindan-1-yl]-3-methoxy-3-methyl-chromane-6-carboxamide] | 65.4 nM |
| CC1(C)CC(=O)N([C@H]2c3cc(C(=O)N[C@@H]4c5ccccc5OC(C)(C)[C@H]4O)ccc3OC2(C)C)C(=N)N1 [Example 182, (3S)-N-[(3S,4R)-3-hydroxy-2,2-dimethyl-chroman-4-yl]-3-(2-imino-4,4-dimethyl-6-oxo-hexahydropyrimidin-1-yl)-2,2-dimethyl-3H-benzofuran-5-carboxamide] | 6.1 nM |
| COCC1(C)Oc2ccc(C(=O)N[C@@H]3c4ccccc4C[C@]3(C)O)cc2C1N1C(=N)NC(C)(C)CC1=O (stereo partly drawn) [Example 183, N-[(1R,2S)-2-hydroxy-2-methyl-indan-1-yl]-3-(2-imino-4,4-dimethyl-6-oxo-hexahydropyrimidin-1-yl)-2-(methoxymethyl)-2-methyl-3H-benzofuran-5-carboxamide] | 71.4 nM |
| CC1(C)CC(=O)N([C@@H]2CCOc3ccc(C(=O)N[C@H]4c5ccccc5OC(C)(C)[C@]4(C)O)cc32)C(=N)N1 [Example 184, (4R)-N-[(3R,4S)-3-hydroxy-2,2,3-trimethyl-chroman-4-yl]-4-(2-imino-4,4-dimethyl-6-oxo-hexahydropyrimidin-1-yl)chromane-6-carboxamide] | 105 nM |
